According to patent publication US7141598B2, “Imidazole derivatives, production method thereof and use thereof” (Takeda Pharmaceutical Company, Ltd., priority 2000, dated 2006):

How the values were obtained:
steroid C17,20-lyase = molecular target: T1, steroid C17,20-lyase (Rattus norvegicus, UniProt P11715); assay: Assay of steroid C17,20-lyase-inhibitory activity in rat (testis microsome); assay type: biochemical; settings: male SD rat orchis microsome, 10 nM [1.2-3H]-17α-hydroxyprogesterone, 37° C., 7 min; read-out: IC50 (steroid C17,20-lyase inhibition)
T1 construct: The orchis was homogenized and centrifuged to prepare a microsome; from tissue; host or cells: testis (orchis) microsomes of 13-week-old male SD rat
T1 sequence (P11715 1-507): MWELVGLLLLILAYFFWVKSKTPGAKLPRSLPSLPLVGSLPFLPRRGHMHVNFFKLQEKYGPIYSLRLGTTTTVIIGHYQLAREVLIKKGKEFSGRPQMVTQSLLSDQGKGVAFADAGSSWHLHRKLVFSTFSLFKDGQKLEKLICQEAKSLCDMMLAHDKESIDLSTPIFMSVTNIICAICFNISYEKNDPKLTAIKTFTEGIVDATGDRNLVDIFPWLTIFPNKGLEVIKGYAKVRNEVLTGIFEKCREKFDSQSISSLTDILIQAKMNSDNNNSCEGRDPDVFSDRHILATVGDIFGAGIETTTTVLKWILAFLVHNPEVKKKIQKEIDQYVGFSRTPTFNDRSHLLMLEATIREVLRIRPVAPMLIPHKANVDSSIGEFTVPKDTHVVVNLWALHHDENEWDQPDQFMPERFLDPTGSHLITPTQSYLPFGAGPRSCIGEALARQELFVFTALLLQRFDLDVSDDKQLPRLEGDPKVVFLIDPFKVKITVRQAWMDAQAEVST
Method: Assay of steroid C17,20-Lyase-Inhibitory Activity in Rat
The assay was performed according to The Prostate, Vol. 26, 140–150 (1995).
The orchis was removed from 13-week-old male SD rat. The orchis was homogenized and centrifuged to prepare a microsome. The [1.2-^3H]-17α-hydroxyprogesterone having a final concentration of 10 nM, NADPH solution and the test compound were dissolved in a 100 mM phosphate buffer solution (10 μl, pH 7.4). Microsome protein (7 μg/10 μl) was added and the mixture was incubated at 37° C. for 7 min. Ethyl acetate (40 μl) was added and the mixture was centrifuged, and the substrate and the product (androstenedione and testosterone) in the supernatant were separated by a silica gel thin layer chromatography (TLC). The spot was detected and quantitatively assayed by a BAS 2000 bioimage analyzer.

human CYP3A4 = molecular target: T2, human CYP3A4 (Homo sapiens, UniProt P08684); assay: Assay of human CYP3A4-inhibitory activity; assay type: biochemical; settings: testosterone 100 μM, human CYP3A4 10 pmol/ml, 37° C., 30 min; read-out: IC50 (CYP3A4 inhibition, 6β-hydroxytestosterone production)
T2 construct: purchased GENTEST
Method: Assay of Human CYP3A4-Inhibitory Activity
Performed as in the following according to Journal of Biological Chemistry, vol. 256, 11937 (1983).
A phosphate buffer solution (50 mM, pH 7.4) containing testosterone (final concentration 100 μM, hereinafter the same), human CYP3A4 (10 pmol/ml, manufactured by GENTEST), NADPH producing system (0.5 mM NADP, 5 mM glucose-6-phosphate, 5 mM magnesium chloride, 1.5 units/ml glucose-6-phosphate dehydrogenase) and the test compound was incubated at 37° C. for 30 min. Acetonitrile was added to the reaction mixture and the mixture was stirred and centrifuged. The 6β-hydroxytestosterone in the obtained supernatant was analyzed by high performance liquid chromatography.

[1] = test system: testosterone biosynthesis; assay: Assay of inhibitory effect on testosterone biosynthesis in rats; assay type: in vivo; settings: 25 mg/kg oral, male SD rat, serum testosterone 2 h after administration, relative to control group
Method: Assay of Inhibitory Effect on Testosterone Biosynthesis in Rats
The test compound (25 mg/kg) was orally administered to 9-week-old male SD (Sprague Dawley) rat. Blood was taken at 2 h after administration of the compound and the concentration of testosterone in the obtained serum was assayed by radioimmunoassay. The proportion (T/C, %) of testosterone concentration of the test drug administration group relative to the testosterone concentration of the control group was calculated to determine testosterone synthesis-inhibitory activity.

T2 sequence (P08684 whole entry): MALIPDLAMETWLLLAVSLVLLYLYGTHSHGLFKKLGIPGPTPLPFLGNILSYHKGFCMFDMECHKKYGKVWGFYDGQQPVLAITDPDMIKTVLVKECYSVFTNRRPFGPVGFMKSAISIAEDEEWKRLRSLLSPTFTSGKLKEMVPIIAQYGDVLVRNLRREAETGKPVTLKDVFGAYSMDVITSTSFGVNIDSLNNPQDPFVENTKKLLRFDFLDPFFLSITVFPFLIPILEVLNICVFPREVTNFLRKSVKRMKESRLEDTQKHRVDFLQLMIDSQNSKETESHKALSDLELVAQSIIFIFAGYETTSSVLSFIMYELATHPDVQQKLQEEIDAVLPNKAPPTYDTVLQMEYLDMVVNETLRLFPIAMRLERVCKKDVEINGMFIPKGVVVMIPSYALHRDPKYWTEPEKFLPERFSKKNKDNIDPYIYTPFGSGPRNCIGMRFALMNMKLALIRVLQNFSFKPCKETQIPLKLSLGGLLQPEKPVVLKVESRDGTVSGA

IC50 (steroid C17,20-lyase)	IC50 (human CYP3A4)	SMILES	inhibitory effect on testosterone biosynthesis (T/C, %) [1]
25 nM	> 10000 nM	OC1(c2ccc(-c3ccc(F)cc3)cc2)CCn2cncc21 (stereo not shown) [Example 4, 7-(4′-fluoro[1,1′-biphenyl]-4-yl)-6,7-dihydro-5H-pyrrolo[1,2-c]imidazol-7-ol]	–
10 nM	9600 nM	OC1(c2cccc(-c3ccc(F)cc3)c2)CCn2cncc21 (stereo not shown) [Example 3, 7-(4′-fluoro[1,1′-biphenyl]-3-yl)-6,7-dihydro-5H-pyrrolo[1,2-c]imidazol-7-ol]	4.4%
54 nM	–	CNC(=O)c1ccc2cc(C3(O)CCn4cncc43)ccc2c1 (stereo not shown) [Example 5, 6-(7-hydroxy-6,7-dihydro-5H-pyrrolo[1,2-c]imidazol-7-yl)-N-methyl-2-naphthamide]	–
48 nM	–	CNC(=O)c1ccc2cc(C3(O)CCn4cncc43)ccc2c1 (single isomer, unassigned; (+)) [Example 11, (+)-6-(7-hydroxy-6,7-dihydro-5H-pyrrolo[1,2-c]imidazol-7-yl)-N-methyl-2-naphthamide]	–
